{"source": "patent US6514946B1", "about": "“Macrolide antibiotics and treatment and prophylaxis of pasteurellosis using the same” (Zaidan Hojin Biseibutsu Kagaku Kenkyu Kai, priority 1999, dated 2003)", "key": {"S. aureus FDA209P": {"test_system": "S. aureus FDA209P", "assay": "Minimum inhibition concentration (MIC), agar double dilution method", "assay_type": "cell-based, Staphylococcus aureus", "settings": "Mueller hinton agar", "description": "(§1) Test 1; Minimum Inhibition Concentration (MIC)\n(§2) MIC was measured, based on the standard method of Japan Society of Chemotherapy, on a BHI agar medium (Brain heart-infusion agar, made by Difco Laboratories Inc.(USA)) with respect to Pasteurella and on a Mueller hinton agar medium (Mueller hinton agar, made by Difco, Laboratories Inc.(USA)) with respect to the other test bacteria in both cases according to the double dilution method."}, "P. multocida": {"test_system": "P. multocida", "assay": "Bacteria separation test from nasal cavity swab", "assay_type": "in vivo, cattle"}, "[1]": {"test_system": "S. aureus Smith (virulent strain)", "assay": "microbe, parasite or virus in culture", "assay_type": "cell-based, Staphylococcus aureus", "settings": "S. aureus Smith (virulent strain); Mueller hinton agar", "description": "as §1, §2"}, "[2]": {"test_system": "Past. multocida BOPO305 M-17", "assay": "Minimum inhibition concentration (MIC), agar double dilution method", "assay_type": "cell-based, Pasteurella multocida", "settings": "Past. multocida BOPO305 M-17, strain from a sheep; BHI agar", "description": "as §1, §2"}, "[3]": {"test_system": "Past. multocida BSPO302 No. 6", "assay": "Minimum inhibition concentration (MIC), agar double dilution method", "assay_type": "cell-based, Pasteurella multocida", "settings": "Past. multocida BSPO302 No. 6, strain from a pig; BHI agar", "description": "as §1, §2"}, "E. coli K-12 R-5": {"test_system": "E. coli K-12 R-5", "assay": "Minimum inhibition concentration (MIC), agar double dilution method", "assay_type": "cell-based, Escherichia coli", "settings": "Mueller hinton agar", "description": "as §1, §2"}, "P. haemolytica 63-39": {"test_system": "P. haemolytica 63-39", "assay": "Sensitivity (MIC), agar plate dilution method", "settings": "P. haemolytica 63-39; agar plate dilution, 10^6 CFU/ml"}, "M. bovis": {"test_system": "M. bovis", "assay_type": "in vivo, cattle", "settings": "nasal cavity swab, before administration (baseline)"}, "[4]": {"test_system": "bovine bacterial pneumonia (Mycoplasma, Ureaplasma and Pasteurella)", "assay": "Clinical test against bovine bacterial pneumonia", "assay_type": "in vivo, cattle", "parameters": "Average clinical score: scale not given here", "source_text": "Test 5: Clinical Test Against Bovine Bacterial Pneumonia\nIn this test, each drug was subcutaneously administered to cattle suffering from bacterial pneumonia (infectious diseases with Mycoplasma, Ureaplasma and Pasteurella), respectively, and the clinical effect of P-MT was compared with those of tilmicosin and C-9.\nTests are made on 17 case of one to two-month-old Holstein cattle (weight 56 to 101 kg) suffering from bacterial pneumonia caused by single or mixed infection of Pasteurella, Mycoplasma, Ureaplasma and Haemophilus (6 animals for each of P-MT and C-9 and 5 animals for tilmicosin). The drug was subcutaneously administered to the animals once a day in an amount of 10 mg/kg.\nThree calves showing a similar degree of symptoms at the start of the test were arranged in one group. Each subject of the same group was respectively tested with one of the above three compounds. Ailing calves were successively grouped when being available.\nClinical findings, based on the daily observation from the time of the administration through the 5th day of the trial, were scored on each item according to the criteria in the table below. The clinical efficacy of the compounds was judged on the 5th day.\nAs to judgment based on the clinical symptoms, cases which could be judged among each group were classified into remarkably effective (85 to 100), effective (70 to under 85), a little effective (50 to under 70) and infective (under 50) according to the following improvement rate by clinical scores, and after summing up, the following effective rate was calculated, the difference in the effective rate among the groups was determined using a statistical method, and thus effectivity was judged. [formula]"}, "[5]": {"test_system": "Past haemolytica BBPO102 N811", "assay": "Minimum inhibition concentration (MIC), agar double dilution method", "assay_type": "cell-based, Pasteurella haemolytica", "settings": "Past haemolytica BBPO102 N811, strain from cattle; BHI agar", "description": "as §1, §2"}, "[6]": {"test_system": "Past haemolytica BAPO103 S801", "assay": "Minimum inhibition concentration (MIC), agar double dilution method", "assay_type": "cell-based, Pasteurella haemolytica", "settings": "Past haemolytica BAPO103 S801, strain from poultry; BHI agar", "description": "as §1, §2"}, "Ureaplasma": {"test_system": "Ureaplasma", "assay": "Bacteria separation test from nasal cavity swab", "assay_type": "in vivo, cattle"}, "M. bovirhinis": {"test_system": "M. bovirhinis", "assay": "Bacteria separation test from nasal cavity swab", "assay_type": "in vivo, cattle"}, "P. haemolytica": {"test_system": "P. haemolytica", "assay": "Bacteria separation test from nasal cavity swab", "assay_type": "in vivo, cattle"}, "[7]": {"test_system": "Staphylococcus aureus 193", "assay": "Minimum inhibition concentration (MIC), agar double dilution method", "assay_type": "cell-based", "settings": "Mueller hinton agar", "description": "as §1, §2"}, "[8]": {"test_system": "Klebsiella pneumoniae PCI602", "assay": "Minimum inhibition concentration (MIC), agar double dilution method", "assay_type": "cell-based", "settings": "Mueller hinton agar", "description": "as §1, §2"}, "Escherichia coli NIHJ": {"test_system": "Escherichia coli NIHJ", "assay": "Minimum inhibition concentration (MIC), agar double dilution method", "assay_type": "cell-based", "settings": "Mueller hinton agar", "description": "as §1, §2"}, "[9]": {"test_system": "Bacillus subtilis NRRL B-558", "assay": "Minimum inhibition concentration (MIC), agar double dilution method", "assay_type": "cell-based", "settings": "Bacillus subtilis NRRL B-558; Mueller hinton agar", "description": "as §1, §2"}, "[10]": {"test_system": "Enterobacter aerogenes ATCC13048", "assay": "Minimum inhibition concentration (MIC), agar double dilution method", "assay_type": "cell-based", "settings": "Mueller hinton agar", "description": "as §1, §2"}, "Serratia marcescens": {"test_system": "Serratia marcescens", "assay": "Minimum inhibition concentration (MIC), agar double dilution method", "assay_type": "cell-based", "settings": "Mueller hinton agar", "description": "as §1, §2"}, "[11]": {"test_system": "Micrococcus luteus PCI1001", "assay": "Minimum inhibition concentration (MIC), agar double dilution method", "assay_type": "cell-based", "settings": "Mueller hinton agar", "description": "as §1, §2"}, "[12]": {"test_system": "Shigella dysenteriae JS11910", "assay": "Minimum inhibition concentration (MIC), agar double dilution method", "assay_type": "cell-based", "settings": "Shigella dysenteriae JS11910; Mueller hinton agar", "description": "as §1, §2"}, "[13]": {"test_system": "Pasteurella haemolytica BBPO101 N791", "assay": "Minimum inhibition concentration (MIC), agar double dilution method", "assay_type": "cell-based", "settings": "Pasteurella haemolytica BBPO101 N791, strain from cattle; BHI agar", "description": "as §1, §2"}, "[14]": {"test_system": "Salmonella enteritidis 1891", "assay": "Minimum inhibition concentration (MIC), agar double dilution method", "assay_type": "cell-based", "settings": "Mueller hinton agar", "description": "as §1, §2"}, "H. somnus": {"test_system": "H. somnus", "assay": "Bacteria separation test from nasal cavity swab", "assay_type": "in vivo, cattle"}, "[15]": {"test_system": "P. haemolytica 63-39 intraperitoneally infected mice", "assay": "Antiinfective test on infected mice"}, "[16]": {"settings": "before administration (baseline)"}, "[17]": {"settings": "probit method from surviving numbers after 7 days, subcutaneous"}}, "data": [{"smiles": "CC[C@H]1OC(=O)C[C@@H](O)[C@H](C)[C@@H](O[C@@H]2O[C@H](C)C(O)C(N(C)C)C2O)[C@@H](CC=O)C[C@@H](C)C(=O)/C=C/C(C)=C/[C@@H]1CN1CCCCC1", "note": "(some centres unmarked)", "values": [{"measurement": "MIC", "setting": "S. aureus FDA209P", "result": 0.20, "unit": "µg/mL"}, {"measurement": "Separation rate (%) at completion (number of animal)", "setting": "P. multocida; at completion", "result": "50 (3/6) % (number of animal)"}, {"measurement": "Separation rate (%) before administration (number of animal)", "setting": "P. multocida; [16]", "result": "100 (6/6) % (number of animal)"}, {"measurement": "MIC", "setting": "[1]", "result": 0.39, "unit": "µg/mL"}, {"measurement": "MIC", "setting": "[2]", "result": 0.39, "unit": "µg/mL"}, {"measurement": "MIC", "setting": "[3]", "result": 0.39, "unit": "µg/mL"}, {"measurement": "MIC", "setting": "E. coli K-12 R-5", "result": ">100", "unit": "µg/mL"}, {"measurement": "MIC", "setting": "P. haemolytica 63-39", "result": 1.56, "unit": "µg/mL"}, {"measurement": "Separation rate (%) before administration (number of animal)", "setting": "M. bovis", "result": "33 (2/6) % (number of animal)"}, {"measurement": "Average clinical score", "setting": "[4]; 1 day after completion of administration, cattle, 10 mg/kg subcutaneous", "result": 3.3}, {"measurement": "Average clinical score", "setting": "[4]; 2 days after completion of administration", "result": 2.5}, {"measurement": "Average clinical score", "setting": "[4]; 3 days after completion of administration", "result": 2.0}, {"measurement": "Average clinical score", "setting": "[4]; 4 days after completion of administration", "result": 1.8}, {"measurement": "Effective rate (%) in clinical effect", "setting": "[4]; (remarkably effective + effective case number)/test case number × 100", "result": 50, "unit": "%"}, {"measurement": "Average symptomatic improvement rate (%)", "setting": "[4]; (score before − score after administration)/score before × 100", "result": 75.9, "unit": "%"}, {"measurement": "Average clinical score", "setting": "[4]; at administration (baseline), cattle, 10 mg/kg subcutaneous", "result": 7.5}, {"measurement": "A little effective (%) (case number)", "setting": "[4]; improvement rate 50 to under 70", "result": "50 (3) % (case number)"}, {"measurement": "Effective (%) (case number)", "setting": "[4]; improvement rate 70 to under 85", "result": "33 (2) % (case number)"}, {"measurement": "Remarkably effective (%) (case number)", "setting": "[4]; improvement rate 85 to 100", "result": "17 (1) % (case number)"}, {"measurement": "Ineffective (%) (case number)", "setting": "[4]; improvement rate under 50", "result": "0 (0) % (case number)"}, {"measurement": "MIC", "setting": "[5]", "result": 0.78, "unit": "µg/mL"}, {"measurement": "MIC", "setting": "[6]", "result": 0.78, "unit": "µg/mL"}, {"measurement": "Separation rate (%) at completion (number of animal)", "setting": "Ureaplasma; at completion", "result": "33 (2/6) % (number of animal)"}, {"measurement": "Separation rate (%) before administration (number of animal)", "setting": "Ureaplasma; [16]", "result": "100 (6/6) % (number of animal)"}, {"measurement": "Separation rate (%) at completion (number of animal)", "setting": "M. bovirhinis; at completion", "result": "33 (2/6) % (number of animal)"}, {"measurement": "Separation rate (%) before administration (number of animal)", "setting": "M. bovirhinis; [16]", "result": "67 (4/6) % (number of animal)"}, {"measurement": "Separation rate (%) at completion (number of animal)", "setting": "P. haemolytica; at completion", "result": "17 (1/6) % (number of animal)"}, {"measurement": "Separation rate (%) before administration (number of animal)", "setting": "P. haemolytica; [16]", "result": "17 (1/6) % (number of animal)"}, {"measurement": "MIC", "setting": "[7]", "result": 0.20, "unit": "µg/mL"}, {"measurement": "MIC", "setting": "[8]", "result": 0.78, "unit": "µg/mL"}, {"measurement": "MIC", "setting": "Escherichia coli NIHJ", "result": 0.78, "unit": "µg/mL"}, {"measurement": "MIC", "setting": "[9]", "result": 0.39, "unit": "µg/mL"}, {"measurement": "MIC", "setting": "[10]", "result": 6.25, "unit": "µg/mL"}, {"measurement": "MIC", "setting": "Serratia marcescens", "result": 6.25, "unit": "µg/mL"}, {"measurement": "MIC", "setting": "[11]", "result": 0.10, "unit": "µg/mL"}, {"measurement": "MIC", "setting": "[12]", "result": 3.13, "unit": "µg/mL"}, {"measurement": "MIC", "setting": "[13]", "result": 0.78, "unit": "µg/mL"}, {"measurement": "MIC", "setting": "[14]", "result": 0.78, "unit": "µg/mL"}, {"measurement": "Separation rate (%) at completion (number of animal)", "setting": "H. somnus; at completion", "result": "0 (0/6) % (number of animal)"}, {"measurement": "Separation rate (%) before administration (number of animal)", "setting": "H. somnus; [16]", "result": "0 (0/6) % (number of animal)"}, {"measurement": "Surviving number after 7 days/test number", "setting": "[15]; dose 1 mg/kg subcutaneous one hour after infection", "result": "0/10"}, {"measurement": "Surviving number after 7 days/test number", "setting": "[15]; dose 5 mg/kg subcutaneous one hour after infection", "result": "1/10"}, {"measurement": "Surviving number after 7 days/test number", "setting": "[15]; dose 10 mg/kg subcutaneous one hour after infection", "result": "3/10"}, {"measurement": "Surviving number after 7 days/test number", "setting": "[15]; dose 20 mg/kg subcutaneous one hour after infection", "result": "10/10"}, {"measurement": "Surviving number after 7 days/test number", "setting": "[15]; dose 30 mg/kg subcutaneous one hour after infection", "result": "10/10"}, {"measurement": "ED50 (95% confidence limit)", "setting": "[15]; [17]", "result": "10.3 mg/kg (7.7-13.4)"}, {"measurement": "ED90", "setting": "[15]; [17]", "result": 18.3, "unit": "mg/kg"}]}]}
